Laboratory results as given in PubChem BioAssay (NCI).
Where “and” joins values, the source holds several entries; their conditions need not be identical. Equal entries are not always repeated.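 Interpolation was linear, between the two tested concentrations surrounding the appropriate level; five concentrations were tested over 48 hours in 96-well plates. Abbreviation: GI50, concentration required for 50% inhibition of growth. TGI: total growth inhibition.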

Tests used:
Assay in all cases: NCI tumour cell line growth inhibition, 48 h
COLO 205 colon = test system: COLO 205 colon
HCC-2998 colon = test system: HCC-2998 colon
KM20L2 colon = test system: KM20L2 colon
M19-MEL melanoma = test system: M19-MEL melanoma
OVCAR-4 ovarian = test system: OVCAR-4 ovarian
SF-268 CNS = test system: SF-268 CNS
SF-295 CNS = test system: SF-295 CNS
SNB-19 CNS = test system: SNB-19 CNS
SF-539 CNS = test system: SF-539 CNS
DLD-1 colon = test system: DLD-1 colon
HS 578T breast = test system: HS 578T breast

| SMILES | TGI (COLO 205 colon) | TGI (HCC-2998 colon) | TGI (KM20L2 colon) | TGI (M19-MEL melanoma) | TGI (OVCAR-4 ovarian) | TGI (SF-268 CNS) | TGI (SF-295 CNS) | TGI (SNB-19 CNS) | TGI (SF-539 CNS) | TGI (DLD-1 colon) | GI50 (COLO 205 colon) | GI50 (HCC-2998 colon) | GI50 (HS 578T breast) | TGI (HS 578T breast) | GI50 (OVCAR-4 ovarian) | GI50 (SF-268 CNS) | GI50 (SF-295 CNS) | GI50 (SF-539 CNS) | GI50 (SNB-19 CNS) |
| --- | --- | --- | --- | --- | --- | --- | --- | --- | --- | --- | --- | --- | --- | --- | --- | --- | --- | --- | --- |
| COC(=O)C1Cc2c(n(C)c3ccccc23)C(c2ccccc2)N1 (configuration not stated) | > 100 µM | > 100 µM | > 100 µM | > 100 µM | > 100 µM | > 100 µM | > 100 µM | > 100 µM | – | – | – | – | – | – | – | – | – | – | – |
| CCC12CCC(O)C1N(C)CCC2Sc1ccccc1 (configuration not stated) | > 100 µM | 94.8 µM | > 100 µM | > 100 µM | > 100 µM | > 100 µM | > 100 µM | > 100 µM | > 100 µM | – | – | – | – | – | – | – | – | – | – |
| CC(=O)CC(=O)CCCC(=O)Nc1ccc(Cl)cc1Cl | > 100 µM | > 100 µM | > 100 µM | – | > 100 µM | > 100 µM | > 100 µM | > 100 µM | > 100 µM | > 100 µM | – | – | – | – | – | – | – | – | – |
| NC(=O)c1csc(C2O[C@@H](COP(=O)(O)OP(=O)(O)OC[C@H]3OC(n4cnc5c(N)ncnc54)[C@H](O)[C@@H]3O)[C@H](O)[C@@H]2O)n1 (some centres not stated) | > 100 µM | > 100 µM | > 100 µM | – | > 100 µM | > 100 µM | > 100 µM | > 100 µM | > 100 µM | > 100 µM | – | – | – | – | – | – | – | – | – |
| COc1ccc(-n2c(-c3ccc(NC(=O)CCCl)cc3)nnc2-c2cc(OC)c(OC)c(OC)c2)cc1 | 4.75 µM | 7.07 µM | – | – | > 14.3 µM | > 14.3 µM | > 14.3 µM | > 14.3 µM | 10.3 µM | – | 2.02 µM | 3.05 µM | 3.89 µM | 12.6 µM | 4.1 µM | 4.09 µM | 5.02 µM | 3.04 µM | 4.33 µM |
| COc1ccc(/C=C\c2cc(OC)c(OC)c(OC)c2)cc1NC(=O)[C@@H](N)CO | 0.0153 µM | > 100 µM | – | – | > 100 µM | > 100 µM | > 100 µM | > 100 µM | 0.0649 µM | – | < 0.01 µM | 0.0199 µM | 0.0309 µM | > 100 µM | 0.0355 µM | 0.0462 µM | < 0.01 µM | 0.0145 µM | 0.0433 µM |
| C=C(CN1CCc2ccccc2C1)c1ccc(/C=C/C(=O)Nc2ccccc2N)cc1 | > 100 µM | 34.5 µM | – | – | > 100 µM | 55.3 µM | 40.6 µM | > 100 µM | > 100 µM | – | 32.2 µM | 2.04 µM | 17.1 µM | > 100 µM | 45.4 µM | 2.44 µM | 3.09 µM | 13 µM | 26.6 µM |
| O=C1C(Cl)=C(Oc2ccccc2)C(=O)c2ccccc21 | 3.24 µM | 15.9 µM | – | – | 7.22 µM | 18.7 µM | 11.3 µM | 17.4 µM | 14.2 µM | – | 1.68 µM | 4.28 µM | 2.62 µM | 13 µM | 2.58 µM | 5.37 µM | 3.03 µM | 5.96 µM | 4.11 µM |
| COc1cc(/C=C2\CC(C)CC3C2=NN(c2ccccc2)C3c2cc(OC)c(OC)c(OC)c2)cc(OC)c1OC (configuration not stated) | > 100 µM | 37.5 µM | – | – | > 100 µM | 44.6 µM | 63.7 µM | > 100 µM | 36.2 µM | – | 17.5 µM | 17.9 µM | 18.4 µM | 81.2 µM | 14.2 µM | 14.1 µM | 10.3 µM | 16.6 µM | 21.7 µM |
| Cc1cc(N(CCC#N)CCC#N)ccc1N=Nc1ccccc1[N+](=O)[O-] | > 100 µM | > 100 µM | – | > 100 µM | > 100 µM | > 100 µM | > 100 µM | – | > 100 µM | > 100 µM | – | – | – | – | – | – | – | – | – |
| CCOC(=O)Oc1c(OC)cc(C(=O)c2ccc(OC)c(OC(=O)CCl)c2OC)cc1OC | 66.7 µM | > 100 µM | – | – | > 100 µM | > 100 µM | 33.7 µM | > 100 µM | 6.38 µM | – | 9.57 µM | 3.36 µM | 0.556 µM | > 100 µM | 6.34 µM | 10.7 µM | 0.886 µM | 0.805 µM | 0.75 µM |
| O=c1oc2ccccc2cc1-c1ccc([N+](=O)[O-])cc1 | > 100 µM | > 100 µM | – | – | > 100 µM | > 100 µM | > 100 µM | > 75.6 µM | > 100 µM | – | – | – | – | > 100 µM | – | – | – | – | – |
| CCNCCNc1cc(-c2ccc(Cl)cc2)c(C#N)c2nc3ccccc3n12 | 3.27 µM | 3.4 µM | – | – | 4.09 µM | 3 µM | 3.31 µM | 3.64 µM | 3.22 µM | – | 1.46 µM | 1.84 µM | 2.2 µM | 4.68 µM | 1.64 µM | 1.54 µM | 1.72 µM | 1.72 µM | 1.84 µM |
| C[C@@H](Oc1cc(-c2cnn(C3CCNCC3)c2)cnc1N)c1c(Cl)ccc(F)c1Cl | 1.57 µM | > 10 µM | – | – | > 10 µM | > 10 µM | > 10 µM | > 10 µM | 3.5 µM | – | 0.42 µM | 2.28 µM | 0.966 µM | 6.25 µM | – | 3.48 µM | 0.276 µM | 1.8 µM | 2.24 µM |
| COc1c(O)cc2oc3cc(O)c(CC=C(C)C)c(O)c3c(=O)c2c1C/C=C(\C)CCC=C(C)C | 11.4 µM | 13.6 µM | – | – | 9.84 µM | 10 µM | 9.6 µM | 12 µM | 12 µM | – | 6.37 µM | 7.06 µM | 7.11 µM | 16.7 µM | 5.41 µM | 5.56 µM | 4.88 µM | 6.11 µM | 6.51 µM |
| COc1cccc(-c2nc(-c3ccc(NS(=O)(=O)c4ccccc4)cc3)[nH]c2-c2ccnc(Br)c2)c1 | 12.4 µM | 4.71 µM | – | – | > 100 µM | > 100 µM | 4.35 µM | > 100 µM | 8.03 µM | – | 2.66 µM | 2.12 µM | 1.71 µM | 5.17 µM | 3.84 µM | 3.34 µM | 1.85 µM | 2.53 µM | 4.03 µM |
| c1ccc(Oc2c3ccccc3nc3ccccc23)cc1 | 6.07 µM | 7.97 µM | – | – | 21.2 µM | 17.3 µM | > 100 µM | 18 µM | 5.22 µM | – | 2.61 µM | 2.87 µM | 6.99 µM | > 100 µM | 4.33 µM | 5.28 µM | 5.03 µM | 2 µM | 5.35 µM |
| Cc1ccc2c(/C=C/C(=O)c3cc(CN4CCOCC4)c(O)c4nc(C)ccc34)cc(CN3CCOCC3)c(O)c2n1 | 4.49 µM | 2.76 µM | – | – | 2.43 µM | 8.66 µM | 10.3 µM | 17.6 µM | 2.02 µM | – | 1.82 µM | 1.1 µM | 1.28 µM | > 100 µM | 0.637 µM | 0.81 µM | 0.765 µM | 0.459 µM | 0.603 µM |
| O=[N+]([O-])c1ccc2c(c1)OCCOCCOc1ccc([N+](=O)[O-])cc1OCCOCCO2 | > 100 µM | > 100 µM | > 100 µM | – | > 100 µM | > 100 µM | > 100 µM | > 100 µM | > 100 µM | – | – | – | – | – | – | – | – | – | – |
| O=C1CC2(CCCc3sccc32)C(=O)N1 (configuration not stated) | > 100 µM | > 100 µM | – | – | > 100 µM | > 100 µM | > 100 µM | > 100 µM | > 100 µM | – | – | – | – | > 100 µM | – | – | – | – | – |
| CC1/C=C/C=C/CC/C=C/C=C/C=C/C=C/C(OC2OC(C)C(O)C(N)C2O)CC2OC(CC(O)C(O)CCC(O)CC(O)CC(O)CC(=O)OC(C)C(C)C1O)CC(O)C2C(=O)O (configuration not stated) | 56.8 µM and 150 µg/mL | 30.8 µM and 44.6 µg/mL | – | – | 29.4 µM and 52.5 µg/mL | 56.9 µM and 70.7 µg/mL | 45.7 µM and 108 µg/mL | 34 µM and 150 µg/mL | 32.3 µM and 64.1 µg/mL | – | 81.7 µg/mL | 19.1 µg/mL | 32.5 µg/mL | 55.1 µM and 66.9 µg/mL | 23.9 µg/mL | 33.9 µg/mL | 46.2 µg/mL | 28 µg/mL | 94.5 µg/mL |
| COc1ccc2c(CN3CCC(CO)CC3)cc3cc4c(cc3c2c1)OCO4 | 1.07 µM | 1.41 µM | – | – | 11.4 µM | 2.47 µM | 3.29 µM | 12.1 µM | 1.64 µM | – | 0.122 µM | 0.194 µM | 0.5 µM | 12.4 µM | 0.438 µM | 0.176 µM | 0.241 µM | 0.254 µM | 0.392 µM |
| O=C(Nc1cccc(NS(=O)(=O)c2ccc(F)cc2)c1)c1ccc(-c2ccccc2)cc1 | 11.4 µM | 24.4 µM | – | – | > 100 µM | 66.6 µM | 11.8 µM | > 100 µM | 12.8 µM | – | 3.23 µM | 3.48 µM | 4.68 µM | 52.5 µM | 3.72 µM | 3.22 µM | 2.34 µM | 3.42 µM | 3.4 µM |
| O=C1NC(=O)[C@@H](c2cn3c4c(cccc24)CCC3)[C@@H]1c1c[nH]c2ccccc12 | 0.973 µM and 1.14 µM | > 10 µM and 5.82 µM | – | – | > 10 µM and 20.2 µM | > 10 µM and 17.5 µM | > 10 µM and 5.08 µM | > 10 µM and 22.6 µM | 2.39 µM and 5.25 µM | – | 0.273 µM and 0.326 µM | 0.59 µM and 0.49 µM | 0.343 µM and 0.323 µM | > 10 µM and 20.9 µM | 1.58 µM and 1.12 µM | 1.32 µM and 0.911 µM | 0.33 µM and 0.26 µM | 0.319 µM and 0.337 µM | 0.466 µM and 0.601 µM |
